According to patent US10981858B2, “Dendrimer and formulations thereof” (Priostar Pty Ltd, priority 2015, dated 2021):

What was measured:
[1] = Cloud point studies; assay type: physicochemical; settings: 1 gm. dendrimer solution (70:30 w/w dendrimer:Diethylene Glycol) in 99 gm. of 10% NaOH solution
Procedure: 1 gm. of dendrimer solution (70:30 w/w dendrimer [Compound 1 or Compound 4]:Diethylene Glycol) was dissolved in 99 gm. of 10% NaOH solution in Deionized water and heated until hazy. Temperature of the solution was measured using calibrated thermometer.

[2] = Tebuconazole 600 SC wetting study in hard water; assay type: physicochemical; settings: one drop Tebuconazole 600 SC, dendrimer 0.7%, in 342 ppm hard water at 30° C.
Procedure: Formulations were prepared by mixing water, surfactant, dispersing agent, wetting agent and antifoam together then gradually adding active. High shear mix for 20-30 minutes to disperse formulation ingredients in water before adding the active and mixing until homogeneous. The mixture was milled on a Dyno bead mill (1 m/s) with 0.4-0.6 mm beads at max. 40° C. until particle size was <4 um. Dendrimer compound (in DEG) was added and stirred for 20 minutes. Thickener and antimicrobial was then added and stirred for 20 minutes. Formulations were deaerated by sonication.
Wetting studies were conducted by placing one drop of Tebuconazole 600 SC formulation in 342 ppm hard water at 30° C. and recording the time when all the formulation particles were wet and dispersed in water.

- Cloud point (temperature at which solution turned hazy) [1]: greater than 80 °C
- Wetting [2]: 9.9 s
Compound: OCCN(CCO)CC(O)COCC(COCC(O)CN(CCO)CCO)(COCC(O)CN(CCO)CCO)COCC(COCC(O)CN(CCO)CCO)(COCC(O)CN(CCO)CCO)COCC(O)CN(CCO)CCO (centres unmarked) [Compound 4, 9,9′-(Oxybis(methylene))bis(9-((3-(bis(2-hydroxyethyl)amino)-2-hydroxypropoxy)methyl)-3,15-bis(2-hydroxyethyl)-7,11-dioxa-3,15-diazaheptadecane-1,5,13,17-tetraol)]
